# What was measured:
# CA-II = conditions: read-out: Ki CA-II inhibition; cited from earlier work
# human CA-II = human CA-II (Homo sapiens, UniProt P00918); assay: In vitro human CA-II inhibition assay; format: biochemical
# [1] = target: electric eel acetylcholinesterase (eeAChE) (Electrophorus electricus, UniProt O42275); assay: Acetylcholinesterase inhibition assay; format: biochemical; conditions: for IC50: IC50 (μM) ± SEM eeAChE, mean ± SEM, n = 3; for SI (Selectivity index): Selectivity index = IC50 of BChE/IC50 of AChE
# Chain of electric eel acetylcholinesterase (eeAChE) (O42275 24-633): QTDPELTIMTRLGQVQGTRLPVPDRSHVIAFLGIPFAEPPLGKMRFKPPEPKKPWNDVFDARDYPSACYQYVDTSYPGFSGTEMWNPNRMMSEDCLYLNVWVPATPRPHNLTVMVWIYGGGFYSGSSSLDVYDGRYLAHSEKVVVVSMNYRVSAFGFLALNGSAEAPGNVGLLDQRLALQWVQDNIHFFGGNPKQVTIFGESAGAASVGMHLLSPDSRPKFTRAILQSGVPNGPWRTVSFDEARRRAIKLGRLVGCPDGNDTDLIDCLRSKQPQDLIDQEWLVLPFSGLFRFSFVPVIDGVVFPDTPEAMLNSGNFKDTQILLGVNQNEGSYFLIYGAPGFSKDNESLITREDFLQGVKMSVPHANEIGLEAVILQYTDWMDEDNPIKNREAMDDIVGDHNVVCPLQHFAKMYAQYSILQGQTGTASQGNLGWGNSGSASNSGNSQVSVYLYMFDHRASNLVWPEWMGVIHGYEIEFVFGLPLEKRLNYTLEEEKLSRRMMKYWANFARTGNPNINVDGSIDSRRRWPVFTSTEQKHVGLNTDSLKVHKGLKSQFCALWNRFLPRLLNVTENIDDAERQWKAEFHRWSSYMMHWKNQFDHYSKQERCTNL
# eqBChE = eqBChE (Equus caballus, UniProt P81908); assay: Butyrylcholinesterase inhibition assay; format: biochemical
# Chain of eqBChE (P81908 whole entry): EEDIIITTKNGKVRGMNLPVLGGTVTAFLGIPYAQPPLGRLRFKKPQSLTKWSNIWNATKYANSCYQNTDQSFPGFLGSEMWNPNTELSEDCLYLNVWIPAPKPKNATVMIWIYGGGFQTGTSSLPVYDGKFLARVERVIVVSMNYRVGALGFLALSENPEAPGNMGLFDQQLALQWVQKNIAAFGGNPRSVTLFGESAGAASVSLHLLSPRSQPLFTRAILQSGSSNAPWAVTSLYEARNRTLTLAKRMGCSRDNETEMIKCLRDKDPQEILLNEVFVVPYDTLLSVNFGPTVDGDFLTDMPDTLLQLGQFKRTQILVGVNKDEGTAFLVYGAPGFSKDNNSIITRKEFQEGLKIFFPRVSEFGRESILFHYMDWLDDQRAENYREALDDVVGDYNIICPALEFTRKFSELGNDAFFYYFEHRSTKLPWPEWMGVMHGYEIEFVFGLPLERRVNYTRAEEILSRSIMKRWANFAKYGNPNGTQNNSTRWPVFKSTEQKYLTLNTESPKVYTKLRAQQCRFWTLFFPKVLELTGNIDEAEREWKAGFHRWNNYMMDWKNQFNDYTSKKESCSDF
# Aβ1–42 peptide = Aβ1–42 peptide (Homo sapiens, UniProt P05067); assay: Self-mediated Aβ1–42 aggregation assay; format: biochemical; conditions: for inhibition of Aβ fibrils: ThT fluorescence, after 24 hours of equimolar treatment with Aβ1–42
# Chain of Aβ1–42 peptide (P05067 672-713): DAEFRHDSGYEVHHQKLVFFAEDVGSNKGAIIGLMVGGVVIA
# [2] = for Prediction of CNS penetration: from PAMPA-BBB Pe; for BBB penetration in PAMPA assay: stated in words
# in vitro = conditions: PAMPA
# SH-SY5Y cells = assay: Cell viability/neurotoxicity assay; format: cell-based, human
# AChE = conditions: read-out: Ki AChE; non-competitive inhibitor; cited from earlier work
Compound,IC50 (human CA-II) [µM],IC50 [1] [µM],SI (Selectivity index) [1],IC50 (eqBChE) [µM],IC50 (Aβ1–42 peptide) [µM],further results
hyocholic acid [Compound 3],,,,,,Ki (CA-II): 38.9 µM
"C[C@]12CCC(NC(=S)Nc3ccc(S(N)(=O)=O)cc3)CC1=CC[C@@H]1[C@@H]2CC[C@]2(C)C(C(=O)CNc3c4c(cc5ccccc35)CCCC4)CC[C@@H]12 (stereo partly drawn) [Compound 28, 4-(3-((8S,9S,10R,13S,14S)-10,13-Dimethyl-17-((1,2,3,4-tetrahydroanthracen-9-yl)glycyl)-2,3,4,7,8,9,10,11,12,13,14,15,16,17-tetradecahydro-1H-cyclopenta[a]phenanthren-3-yl)thioureido)benzenesulfonamide]",31.8 ± 1.08,0.32 ± 0.01,42.2,13.5 ± 0.09,26.37 ± 0.25,
"CCn1cc(C(=O)O)c(=O)c2cc(F)c(N3CCNC(C)C3)c(F)c21 (stereo not shown) [Lomefloxacin, reference compound]",,,,,,Prediction of CNS penetration [2]: No (‘CNS−’ (prediction of low BBB permeation); Pe (10^−6 cm s^−1) < 1.78)
"COc1cc(/C=C/C(=O)CC(=O)/C=C/c2ccc(O)c(OC)c2)ccc1O [Curcumin, reference compound]",,,,,,inhibition of Aβ fibrils (Aβ1–42 peptide): approximately 60%
"C[C@]12CCC(NC(=S)Nc3ccc(S(N)(=O)=O)cc3)CC1=CC[C@@H]1[C@@H]2CC[C@]2(C)C(C(=O)CNCCc3ccccc3)CC[C@@H]12 (stereo partly drawn) [Compound 24, 4-(3-((8S,9S,10R,13S,14S)-10,13-Dimethyl-17-(phenethylglycyl)-2,3,4,7,8,9,10,11,12,13,14,15,16,17-tetradeca-hydro-1H-cyclopenta[a]phenanthren-3-yl)thioureido)benzenesulfonamide]",5.44 ± 0.14,1.61 ± 0.1,8.0,12.8 ± 0.45,29.6 ± 1.21,
"CC(=O)C1CC[C@H]2[C@@H]3CC=C4CC(N)CC[C@]4(C)[C@H]3CC[C@]12C (stereo partly drawn) [Compound 12, 1-((8S,9S,10R,13S,14S)-3-amino-10,13-dimethyl-2,3,4,7,8,9,10,11,12,13,14,15,16,17-tetradecahydro-1H-cyclopenta[a]phenanthren-17-yl)ethan-1-one]",73.2 ± 1.14,67.7 ± 1.09,,,,Prediction of CNS penetration [2]: High (‘CNS+’ (prediction of high BBB permeation); Pe (10^−6 cm s^−1) > 4.39); BBB penetration in PAMPA assay [2]: high BBB penetration; Papp (in vitro): 19.6 ×10⁻⁶ cm/s
"C[C@]12CCC(NC(=S)Nc3ccc(S(N)(=O)=O)cc3)CC1=CC[C@@H]1[C@@H]2CC[C@]2(C)C(C(=O)CN3c4ccccc4Sc4ccccc43)CC[C@@H]12 (stereo partly drawn) [Compound 27, 4-(3-((8S,9S,10R,13S,14S)-17-(2-(10H-Phenothiazin-10-yl)acetyl)-10,13-dimethyl-2,3,4,7,8,9,10,11,12,13,14,15,16,17-tetradecahydro-1H-cyclopenta[a]phenanthren-3-yl)thioureido)benzenesulfonamide]",5.18 ± 0.12,0.094 ± 0.002,166.7,15.01 ± 0.03,5.78 ± 0.07,"inhibition of Aβ fibrils (Aβ1–42 peptide): 85%; protection of SH-SY5Y cells from the toxicity of the Aβ peptide (SH-SY5Y cells; SH-SY5Y cells incubated with Aβ1–42): effectively protected; cytotoxicity (SH-SY5Y cells; SH-SY5Y cells, 5 μM): completely non-cytotoxic; Prediction of CNS penetration [2]: High (‘CNS+’ (prediction of high BBB permeation); Pe (10^−6 cm s^−1) > 4.39); BBB penetration in PAMPA assay [2]: BBB penetrants; Papp (in vitro): 18.1 ×10⁻⁶ cm/s"
"Cc1nnc2n1-c1ccc(Cl)cc1C(c1ccccc1)=NC2 [Alprazolam, reference compound]",,,,,,Prediction of CNS penetration [2]: High (‘CNS+’ (prediction of high BBB permeation); Pe (10^−6 cm s^−1) > 4.39)
"C[C@]12CCC(NC(=S)Nc3ccc(S(N)(=O)=O)cc3)CC1=CC[C@@H]1[C@@H]2CC[C@]2(C)C(C(=O)CNCc3ccccc3)CC[C@@H]12 (stereo partly drawn) [Compound 25, 4-(3-((8S,9S,10R,13S,14S)-17-(Benzylglycyl)-10,13-di-methyl-2,3,4,7,8,9,10,11,12,13,14,15,16,17-tetradeca-hydro-1H-cyclopenta[a]phenanthren-3-yl)thioureido)benzenesulfonamide]",1.02 ± 0.01,0.98 ± 0.1,11.5,11.27 ± 0.11,12.8 ± 0.15,
"C[C@H](CCC(=O)O)[C@H]1CC[C@H]2[C@@H]3CC[C@@H]4C[C@H](O)CC[C@]4(C)[C@H]3C[C@H](O)[C@]12C [Compound 5, deoxycholic acid]",,,,,,Ki (CA-II): 51 µM
"C[C@]12CC[C@@H]3c4ccc(O)cc4CC[C@H]3[C@@H]1CC[C@H]2O [Compound 4, α-estradiol]",,,,,,Ki (CA-II): 40.4 µM
"CC(=O)C1CC[C@H]2[C@@H]3CC=C4CC(NC(=S)Nc5ccc(S(N)(=O)=O)cc5)CC[C@]4(C)[C@H]3CC[C@]12C (stereo partly drawn) [Compound 15, 4-(3-((8S,9S,10R,13S,14S)-17-Acetyl-10,13-dimethyl-2,3,4,7,8,9,10,11,12,13,14,15,16,17-tetradecahydro-1H-cyclopenta[a]phenanthren-3yl)thioureido)benzenesulfonamide]",48.9 ± 1.37,13 ± 0.18,4.8,63 ± 1.23,9.25 ± 0.17,"inhibition of Aβ fibrils (Aβ1–42 peptide): approximately 60%; viability at 5 µM (SH-SY5Y cells; Homo sapiens, SH-SY5Y, read-out: cell viability): ~75%"
isosarcodine,,,,,,Ki (AChE): 21.8 µM
C[C@]12CC[C@@H]3c4ccc(O)cc4CC[C@H]3[C@@H]1CCC2=O [oestrone],,,,,,Ki (CA-II): 50.8 µM

# Source: paper PMC11075139 (RSC Advances, 2024)
